Source: patent US20250339396A1 (COSMAS THERAPEUTICS DEVELOPMENT INC., priority 2021, published 2025)
Where two headings read alike, the source gives them in different places. Blank lines part the entries; values can stand above or below the compound they belong to.

Legend:
neuropathic (SNI) rats = assay: Mechanical allodynia (von Frey, 50% paw withdrawal threshold) after spared nerve injury (SNI); assay type: in vivo, rat; conditions: for Area Under the Curve (AUC) of withdrawal threshold vs. vehicle, Bonferroni p (FIG. 2B) / withdrawal threshold over time vs. vehicle (two-way ANOVA, FIG. 2A): dose not given for prodrugs E, F; for withdrawal threshold over time vs. vehicle (two-way ANOVA, FIG. 2A): per os; for withdrawal threshold over time vs. vehicle (two-way ANOVA, FIG. 1A): 0.5-8 h; for withdrawal threshold vs. vehicle, Bonferroni post-hoc p: after 1 hour; for AUC of withdrawal threshold vs. vehicle (FIG. 3B): p<0.01
Description: Experiments were performed in male Sprague-Dawley rats (body weight: 250-300 g; Charles River Laboratories, St. Constant, QC, Canada) and adult male C57BL mice (body weight: 25-30 g; inbred). All animals were housed in small groups at a constant temperature of 22° C., with food and water provided ad libitum, and maintained under a 12 h light/dark cycle (lights on at 7:00 AM; lights off at 7:00 PM). All experimental procedures were conducted in accordance with the guidelines of the Canadian Council on Animal Care, and the protocols were approved by the Animal Care Committee at McGill University.
The different prodrug compounds as synthesized in Example 2 were tested and compared with Gabapentin (150 mg/kg, purchased from Sigma Aldrich, US). Prodrug was dissolved in saline, water, or a vehicle composed of 40% PEG400 and 60% water. Gabapentin was dissolved in a vehicle composed of 40% PEG400 and 60% water. All drugs (doses see the procedure descriptions below) were administrated per os (gavage) through a curved feeding tube (20 G for rats and 22 G for mice) at the beginning of the experiment unless otherwise specified. The dose of prodrug was chosen based on its pharmacokinetic properties, and the doses of Gabapentin were chosen from literature (Lopez-Canul, Palazzo et al. 2015).
Spared nerve injury was performed according to the method of (Decosterd I and Woolf CJ, 2000), see also Lopez-Canul et al., 2015. Rats and mice were anesthetized with isoflurane. The sciatic nerve was exposed at mid-thigh level distal to the trifurcation and freed of connective tissue; the three peripheral branches (sural, common peroneal, and tibial nerves) of the sciatic nerve were exposed without stretching nerve structures. Both tibial and common peroneal nerves were ligated and transected together. Tactile allodynia was absent in healthy (pre-surgery) and sham rats, and the mechanical withdrawal threshold in rats before SNI (pre-surgery) or sham was very close to the cutoff of dynamic plantar aesthesiometer (30 g) (Ugo Basile, Varese, Italy).
On day 14 after surgery, individual rats were placed in a test chamber (clear plastic wire mesh-bottomed cage) and allowed to acclimatize for 30 to 40 minutes. Von Frey filaments (Stoelting, Wood Dale, IL) were used to measure the 50% paw withdrawal threshold using the up-and-down method reported by {Chaplan, 1994 #399}. […] Lifting of the paw indicated a positive response and prompted the use of the […], whereas absence of paw withdrawal after 5 seconds indicated a negative response and prompted the next filament of increasing weight. This paradigm continued for 4 more measurements after the initial change of the behavioral response or until 5 consecutive negative or 4 consecutive positive responses. Based on observations on normal, unoperated, and sham-operated rats, the cutoff value of 15 g was selected as the upper limit for testing because stiffer hairs tended to raise the entire limb rather than to buckle, substantially changing the nature of the stimulus. The resulting scores were used to calculate the 50% response threshold using the formula proposed by Dixon. Allodynia was considered to be present when paw withdrawal thresholds were <4 g, and drugs raising this threshold were considered antiallodynic {Lopez-Canul, 2015}. Accordingly, all nerve ligated rats were verified to be allodynic, responding to a stimulus of <4 g. Rats without mechanical allodynia were excluded. After the determination of the basal response, allodynia was assessed at baseline, 0.5, 1, 1.5, 2, 2.5, 3, 4, 5, 6, 7, and 8 hours post-administration for each treatment described below. Groups of 5 to 6 rats per treatment were used, with each animal being used for 1 treatment only. […]

[1] = dose of 40 mg/kg; cited from earlier work
[2] = in vivo; cited from earlier work
[3] = Oral bioavailability and brain penetrance of UCM765 and UCM924
[4] = cited from earlier work

Compound: CC(=O)N(CCN(c1ccc(F)cc1)c1cccc(Br)c1)C(=O)OCOC(=O)C1CCCN1.Cl (stereo not shown) [Prodrug E, ((acetyl(2-((3-bromophenyl)(4-fluorophenyl)amino)ethyl)carbamoyl)oxy)methyl pyrrolidine-2-carboxylate hydrochloride]
Area Under the Curve (AUC) of withdrawal threshold vs. vehicle, Bonferroni p (FIG. 2B) (neuropathic (SNI) rats): < 0.05
withdrawal threshold vs. vehicle, post-hoc p (FIG. 2A) (neuropathic (SNI) rats; hour 2, 4 and 5): < 0.05
withdrawal threshold, treatment vs. vehicle p (FIG. 2A) (neuropathic (SNI) rats; overall): 0.04
withdrawal threshold over time vs. vehicle (two-way ANOVA, FIG. 2A) (neuropathic (SNI) rats): different from vehicle

Compound: CC(=O)N(CCN(c1ccc(F)cc1)c1cccc(Br)c1)COC(=O)C(C)(C)C [Prodrug A, (N-(2-((3-bromophenyl)(4-fluorophenyl)amino)ethyl)acetamido) methyl pivalate]
Area Under the Curve (AUC) of withdrawal threshold vs. vehicle, Bonferroni p (FIG. 1B) (neuropathic (SNI) rats; 50 mg/kg per os): < 0.01
withdrawal threshold over time vs. vehicle (two-way ANOVA, FIG. 1A) (neuropathic (SNI) rats; 50 mg/kg per os): significantly increased the withdrawal threshold
withdrawal threshold vs. vehicle, Bonferroni post-hoc p (neuropathic (SNI) rats; 50 mg/kg per os): < 0.001

Compound: CC(=O)N(CCN(c1ccc(F)cc1)c1cccc(Br)c1)C(=O)OCOC(=O)[C@@H](N)CC(C)C.Cl [Prodrug F]
withdrawal threshold vs. vehicle, Bonferroni post-hoc p (FIG. 2A) (neuropathic (SNI) rats; after 5, 6 and 7 hours): < 0.0001
withdrawal threshold vs. vehicle, Bonferroni post-hoc p (FIG. 2A) (neuropathic (SNI) rats; after 3 hours): 0.05
Area Under the Curve (AUC) of withdrawal threshold vs. vehicle, Bonferroni p (FIG. 2B) (neuropathic (SNI) rats): < 0.001
withdrawal threshold over time vs. vehicle (two-way ANOVA, FIG. 2A) (neuropathic (SNI) rats): significant difference

Compound: CC(=O)N(CCN(c1ccc(F)cc1)c1cccc(Br)c1)C(=O)OC(C)OC(=O)CN.Cl (stereo not shown) [Prodrug C, 1-((acetyl(2-((3-bromophenyl)(4-fluorophenyl)amino)ethyl)carbamoyl)oxy)ethyl 2-aminoacetate hydrochloride]
withdrawal threshold over time vs. vehicle (two-way ANOVA, FIG. 1A) (neuropathic (SNI) rats; 50 mg/kg per os): significantly increased the withdrawal threshold

Kp ([3]; brain): 2.5
bioavailability ([3]; in vivo, po): 2%
Compound: COc1cccc(N(CCNC(C)=O)c2ccccc2)c1 [UCM765, N-{2-[(3-methoxyphenyl)-phenylamino]ethyl}acetamide]
restorative sleep (NREM sleep) [1]: facilitated restorative sleep
anti-anxiety properties [2]: possesses anti-anxiety properties

Compound: CCC(=O)NCC[C@@H]1CCc2ccc3c(c21)CCO3 [Ramelteon]
absolute oral bioavailability ([4]; extensive first-pass metabolism): 1.8%

Compound: COc1ccc2[nH]cc(CCNC(C)=O)c2c1 [MLT, Melatonin]
half-life ([4]; in vivo): < 30 min

Compound: COc1ccc2cccc(CCNC(C)=O)c2c1 [Agomelatine]
bioavailability ([4]; at the therapeutic oral dose): < 5%

Compound: CCOC(=O)OCN(CCN(c1ccc(F)cc1)c1cccc(Br)c1)C(C)=O [Prodrug B, (N-(2-((3-bromophenyl)(4-fluorophenyl)amino)ethyl)acetamido) methyl ethyl carbonate]
withdrawal threshold over time vs. vehicle (two-way ANOVA, FIG. 1A) (neuropathic (SNI) rats; 50 mg/kg per os): significantly increased the withdrawal threshold
withdrawal threshold vs. vehicle, Bonferroni post-hoc p (neuropathic (SNI) rats; 50 mg/kg per os): < 0.0001

Compound: CC(=O)N(CCN(c1ccc(F)cc1)c1cccc(Br)c1)C(=O)OCOC(=O)CN [Prodrug D-2, ((acetyl(2-((3-bromophenyl)(4-fluorophenyl)amino)ethyl)carbamoyl)oxy)methyl 2-aminoacetate methane-sulfonate]
effect on withdrawal threshold in the SNI model (FIG. 3A) (neuropathic (SNI) rats; 50 mg/kg): not effective
AUC of withdrawal threshold vs. vehicle (FIG. 3B) (neuropathic (SNI) rats; 50 mg/kg): significant pro-nociceptive effect
effect on withdrawal threshold in the SNI model (FIG. 3A) (neuropathic (SNI) rats; 100 mg/kg): effective
AUC of withdrawal threshold vs. vehicle (FIG. 3B) (neuropathic (SNI) rats; 100 mg/kg): modest, but significant anti-nociceptive effect
